ChEMBL document CHEMBL3751844, “Novel juglone and plumbagin 5-O derivatives and their in vitro growth inhibitory activity against apoptosis-resistant cancer cells” (Bioorg Med Chem Lett, 2016)
pIC50: −log10 of the molar value. Calls of active or inactive are those of the source. No cut-off for these calls is given here.

Experiments:
[1] = Growth inhibition of human Hs683 cells by MTT assay; type: functional, cell-based; details: Hs 683
[2] = test system: A549; assay: Growth inhibition of human A549 cells by MTT assay; type: functional, cell-based
[3] = test system: MCF7; assay: Growth inhibition of human MCF7 cells by MTT assay; type: functional, cell-based
[4] = test system: SK-MEL-28; assay: Growth inhibition of human SK-MEL-28 cells by MTT assay; type: functional, cell-based
[5] = Growth inhibition of mouse B16F10 cells by MTT assay; type: functional, cell-based; details: B16-F10
[6] = Growth inhibition of human U373 cells by MTT assay; type: functional, cell-based, U-373MG ATCC; details: U373 MG
[7] = Chemical stability of the compound in MEM and RPMI assessed as compound recovery after 72 hrs in presence of foetal calf serum; type: physicochemical; details: cattle, MEM and RPMI cell culture media with foetal calf serum; read-out: Drug recovery
[8] = test system: U-373MG ATCC; assay: Cytotoxicity against human U373 cells at 8 uM after 72 hrs by video microscopic analysis; type: functional, cell-based
[9] = test system: U-373MG ATCC; assay: Cytotoxicity against human U373 cells at 17 uM after 72 hrs by video microscopic analysis; type: functional, cell-based
[10] = test system: U-373MG ATCC; assay: Cytotoxicity against human U373 cells at 5 uM after 72 hrs by video microscopic analysis; type: functional, cell-based

Compound | pIC50 [1] | pIC50 [2] | pIC50 [3] | pIC50 [4] | pIC50 [5] | pIC50 [6] | remaining at 72 h [7] [%] | Activity [8] | Activity [9] | Activity [10]
CC(=O)Oc1cccc2c1C(=O)C=CC2=O | 4.64 | 4.64 | 5.10 | 4.64 | 5.15 | 5.10 | > 95 | Active | – | –
CC(C)=CCC/C(C)=C/COc1cccc2c1C(=O)C=CC2=O | 4.17 | 4.17 | < 4.00 | < 4.00 | < 4.00 | < 4.00 | – | – | – | –
CCCCCCCC/C=C\CCCCCCCC(=O)Oc1cccc2c1C(=O)C=CC2=O | 4.11 | 4.11 | 4.21 | 4.17 | 4.21 | 4.04 | > 95 | – | – | –
CCCCCCCCCCCCCCCC(=O)Oc1cccc2c1C(=O)C=C(C)C2=O | 4.48 | 4.52 | 4.24 | 4.14 | 4.66 | 4.32 | > 95 | – | – | –
CCOc1cccc2c1C(=O)C=C(C)C2=O | 5.70 | 5.52 | 5.22 | 5.52 | 5.52 | 4.62 | – | – | – | –
C=CCOc1cccc2c1C(=O)C=CC2=O | 4.72 | 4.59 | 4.68 | 4.62 | 5.40 | 4.49 | – | – | – | –
CC(C)=CCOc1cccc2c1C(=O)C=C(C)C2=O | 5.52 | 5.40 | 5.52 | 5.15 | 6.00 | 5.15 | – | – | – | –
CCCCCCCCCCCC(=O)Oc1cccc2c1C(=O)C=CC2=O | 4.54 | 4.54 | 4.62 | 4.82 | 5.10 | 4.74 | > 95 | – | – | –
O=C1C=CC(=O)c2c(O)cccc21 [JUGLONE] | 5.15 | 5.15 | 4.89 | 5.15 | 5.22 | 4.77 | – | – | Active | –
CCCCCCCCCCCCCCCC(=O)Oc1cccc2c1C(=O)C=CC2=O | < 4.00 | < 4.00 | 4.07 | < 4.00 | 4.28 | < 4.00 | > 95 | – | – | –
CCCCCCCCCCCCCCCCCC(=O)Oc1cccc2c1C(=O)C=CC2=O | 4.17 | 4.17 | 4.52 | 4.74 | 4.72 | 4.19 | > 95 | – | – | –
CC(=O)Oc1cccc2c1C(=O)C=C(C)C2=O | 5.30 | 5.30 | 5.40 | 5.52 | 6.40 | 5.30 | > 95 | – | – | –
CCCCCCCCCCCCCC(=O)Oc1cccc2c1C(=O)C=C(C)C2=O | 5.05 | 4.92 | 4.66 | 4.74 | 5.52 | 4.80 | > 95 | – | – | –
CC(C)=CCOc1cccc2c1C(=O)C=CC2=O | 5.15 | 5.22 | 4.80 | 5.30 | 5.15 | 4.82 | – | – | – | –
COc1cccc2c1C(=O)C=CC2=O | 5.22 | 5.05 | 4.41 | 4.52 | 5.00 | 5.05 | – | – | – | –
CCCCCCCCCCCCCC(=O)Oc1cccc2c1C(=O)C=CC2=O | 4.44 | 4.44 | 4.52 | 4.48 | 4.57 | 4.52 | > 95 | – | – | –
CC1=CC(=O)c2c(O)cccc2C1=O [PLUMBAGIN] | 5.40 | 5.52 | 5.52 | 5.30 | 6.00 | 5.30 | – | – | – | Active
C=CCOc1cccc2c1C(=O)C=C(C)C2=O | 5.52 | 5.52 | 5.52 | 5.52 | 6.00 | 5.52 | – | – | – | –
CCCCCCCCCCCC(=O)Oc1cccc2c1C(=O)C=C(C)C2=O | 4.77 | 4.66 | 4.54 | 4.11 | 5.52 | 4.80 | > 95 | – | – | –
COc1cccc2c1C(=O)C=C(C)C2=O | 5.52 | 5.40 | 5.30 | 5.30 | 5.70 | 5.30 | – | – | – | Active
CCCCCCCCCCCCCCCCCC(=O)Oc1cccc2c1C(=O)C=C(C)C2=O | < 4.00 | < 4.00 | < 4.00 | 4.04 | 4.34 | < 4.00 | > 95 | – | – | –
CCCCCCCC/C=C\CCCCCCCC(=O)Oc1cccc2c1C(=O)C=C(C)C2=O | 4.46 | 4.44 | 4.24 | 4.51 | 4.66 | 4.21 | > 95 | – | – | –
CCOc1cccc2c1C(=O)C=CC2=O | 4.64 | 4.72 | 4.62 | 5.05 | 5.30 | 4.54 | – | – | – | –
CC(C)=CCC/C(C)=C/COc1cccc2c1C(=O)C=C(C)C2=O | 4.66 | 4.64 | 4.40 | 4.51 | 4.52 | 4.23 | – | – | – | –
